# Reference: publication PMC6934184, “Selective DNA-PKcs inhibition extends the therapeutic index of localized radiotherapy and chemotherapy” (The Journal of Clinical Investigation, 2019)
# Biological target: T1, CLK1 (Homo sapiens, UniProt P49759)
# T1 construct: purchased Thermo Fisher Scientific (Life Technologies) SelectScreen
# Experiment: SelectScreen Z'LYTE
# Format: biochemical
# How it was run: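 Compound tested in SelectScreen activity assays, Z'LYTE for CSF1R, CDK1/cyclin B and MAP2K6 and Adapta for CAMK1. ATP for CAMK1 was listed as 10, and Km app was used for CSF1R. Results are expressed in percent.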
# T1 sequence (P49759 whole entry): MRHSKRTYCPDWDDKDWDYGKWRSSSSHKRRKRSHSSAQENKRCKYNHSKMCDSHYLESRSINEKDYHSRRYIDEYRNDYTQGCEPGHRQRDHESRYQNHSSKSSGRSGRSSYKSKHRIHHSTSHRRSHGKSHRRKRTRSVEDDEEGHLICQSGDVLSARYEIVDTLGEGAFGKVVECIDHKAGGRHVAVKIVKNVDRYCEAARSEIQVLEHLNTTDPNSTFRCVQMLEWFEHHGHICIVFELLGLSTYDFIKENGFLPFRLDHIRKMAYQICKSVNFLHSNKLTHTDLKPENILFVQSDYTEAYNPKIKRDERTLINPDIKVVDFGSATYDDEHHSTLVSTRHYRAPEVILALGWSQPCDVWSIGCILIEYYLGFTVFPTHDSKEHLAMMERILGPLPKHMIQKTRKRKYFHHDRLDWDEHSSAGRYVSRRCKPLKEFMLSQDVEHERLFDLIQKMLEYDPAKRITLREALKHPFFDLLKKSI
smiles,measurement,value
CN(C(=O)CN1CCOCC1)c1ccc2sc3c(-c4cccc5c(=O)cc(N6CC7CCC(C6)O7)oc45)cccc3c2c1 [NU5455],inhibition at 1 µM,11.7%
